Test results published in PMC5785997, “2-Phenylquinazolinones as dual-activity tankyrase-kinase inhibitors” (Scientific Reports, 2018).

Experiments:
ARTD3/PARP3 = biological target: T1, ARTD3/PARP3 (Homo sapiens, UniProt Q9Y6F1); experiment: ARTD profiling, ARTD3; format: biochemical; settings: NAD+ 500 nM
T1 sequence (Q9Y6F1 1-533): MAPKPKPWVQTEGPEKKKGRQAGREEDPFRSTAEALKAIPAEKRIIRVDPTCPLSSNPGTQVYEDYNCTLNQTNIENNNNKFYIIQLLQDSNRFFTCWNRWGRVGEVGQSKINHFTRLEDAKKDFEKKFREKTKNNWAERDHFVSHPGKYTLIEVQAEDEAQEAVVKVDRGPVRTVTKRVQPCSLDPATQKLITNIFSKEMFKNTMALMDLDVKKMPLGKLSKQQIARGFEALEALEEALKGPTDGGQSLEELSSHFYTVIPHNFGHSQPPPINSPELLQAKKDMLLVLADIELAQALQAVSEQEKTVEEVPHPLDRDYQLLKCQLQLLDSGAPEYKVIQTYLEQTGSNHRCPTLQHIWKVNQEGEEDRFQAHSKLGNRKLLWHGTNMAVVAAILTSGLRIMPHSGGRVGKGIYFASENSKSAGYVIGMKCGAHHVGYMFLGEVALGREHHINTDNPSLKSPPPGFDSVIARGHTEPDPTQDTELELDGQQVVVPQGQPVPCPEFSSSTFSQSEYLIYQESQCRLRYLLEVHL
Method: Protein (nM) NAD+ (nM) Incubation Buffer
Kinase [ATP] Substrate Incubation Reaction buffer

[1] = tested on: Wnt/β-catenin signaling (TCF/LEF Reporter HEK293 Cell Line); experiment: Wnt signaling TCF/LEF reporter assay in HEK293 cells; format: cell-based, human; settings: for Wnt (HEK293) inhibition at 1 µM: 1 µM compound; for inhibition at 1 µM: HEK293, 1 µM compound
Method: The Wnt assay was performed using a procedure modified from the BPS Bioscience protocol. Details are given in the Supplementary Methods. […]
The Wnt Signaling Pathway TCF/LEF Reporter HEK293 Cell Line (BPS Bioscience, catalog […]
Reporter HEK293 cells were grown at 37 °C with 5% CO2 using Dulbecco's Modified Eagle's Medium (DMEM, Sigma), supplemented with 10% of fetal bovine serum (Lonza), 1% non-essential amino acid (Sigma), 1X of penicillin and streptomycin (Sigma), and 400 µg/ml of Geneticin (Roche). Wnt-3a and L cells (ATCC) were cultured in Dulbecco’s modified Eagle’s medium supplemented with 10% fetal bovine serum, penicillin and streptomycin at 37 °C in a 5%
CO2. Wnt3a and control conditioned medium preparation has been described previously1. The Wnt assay was performed using a procedure modified from the BPS Bioscience protocol. 30,000 HEK293 cells/well in 40 µl of serum-free DMEM were plated on 96-well plate (white wells, clear […]
bottom, PerkinElmer). 10 µl of 50 mM LiCl in serum-free DMEM with 5x concentration of DMSO or tankyrase inhibitors was added. After 16 hours of incubation, 25 µl of Wnt3a or control conditioned medium supplemented with DMSO or tankyrase inhibitors was added on cells and cells were incubated for additional 24 hours. After the second incubation, the 96-well plates were balanced in room temperature for 30 minutes. Wnt3a induced luciferase activity was determined using ONE-Glo Luciferase Assay System (Promega) according to manufacturer’s protocol. […]
Difference Fourier method deriving the starting phases from 3U9H. The refinement of the structures was done with REFMAC5.5,6 Final manual building, analysis and visualization of the structures were made with Coot7 and PyMOL (www.pymol.org). All chemical structures were drawn with Marvin (Marvin 5.7.0 2011, ChemAxon, http://www.chemaxon.com). The docking studies were performed using GOLD software.8

ARTD10/PARP10 = biological target: T2, ARTD10/PARP10 (Homo sapiens, UniProt Q53GL7); experiment: ARTD profiling, ARTD10
T2 sequence (Q53GL7 806-1025 limits assumed): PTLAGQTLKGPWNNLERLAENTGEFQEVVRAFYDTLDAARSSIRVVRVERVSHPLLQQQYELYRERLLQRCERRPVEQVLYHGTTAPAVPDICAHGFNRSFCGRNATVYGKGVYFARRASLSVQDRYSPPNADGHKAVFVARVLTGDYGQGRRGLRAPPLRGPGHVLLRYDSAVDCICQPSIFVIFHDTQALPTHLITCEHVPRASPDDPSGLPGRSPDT

ARTD12/PARP12 = biological target: T3, ARTD12/PARP12 (Homo sapiens, UniProt Q9H0J9); experiment: ARTD profiling, ARTD12
T3 sequence (Q9H0J9 484-698 limits assumed): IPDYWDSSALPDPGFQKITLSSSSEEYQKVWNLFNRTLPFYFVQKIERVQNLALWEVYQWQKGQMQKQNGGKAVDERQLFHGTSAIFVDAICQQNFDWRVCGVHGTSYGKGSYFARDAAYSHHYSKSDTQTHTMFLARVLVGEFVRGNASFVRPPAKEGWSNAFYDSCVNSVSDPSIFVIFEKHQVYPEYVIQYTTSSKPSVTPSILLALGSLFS

[2] = Homo sapiens, TCF/LEF reporter HEK293

| SMILES | IC50 (ARTD3/PARP3) [µM] | Wnt (HEK293) inhibition at 1 µM ([1]; TCF/LEF reporter HEK293) [%] | inhibition at 1 µM [1, 2] [%] | Effect on Wnt/β-catenin signaling at lower concentrations ([1]; concentrations below 1 µM) | IC50 (ARTD10/PARP10) [µM] | IC50 (ARTD12/PARP12) [µM] | IC50 [1, 2] [µM] |
| --- | --- | --- | --- | --- | --- | --- | --- |
| CCN(CC)c1ccc(-c2nc3ccccc3c(=O)[nH]2)cc1 [Compound 32] | 2.1 | 63 | > 50 | activated Wnt/β-catening signaling | > 10 | > 10 |  |
| O=c1[nH]c(-c2ccc(N3CCCCC3)cc2)nc2ccccc12 [Compound 30] | 23 | > 50 | 61 |  | > 10 | > 10 | 0.57 |
